As usually defined, the IC50 is the concentration needed to halve the response being measured.

The target of the experiment is Probable nicotinate-nucleotide adenylyltransferase (Staphylococcus aureus (strain N315)) (UniProt P65502). Description: inhibitors of S. aureus NadD, dose response, biochemical, colorimetric, uHTS hits (AID 624317). The conditions noted are these: purified NadD enzyme, colorimetric activity assay.

The structures appear in SMILES notation.

Chain of Probable nicotinate-nucleotide adenylyltransferase (Staphylococcus aureus (strain N315)) (P65502 whole entry, looked up): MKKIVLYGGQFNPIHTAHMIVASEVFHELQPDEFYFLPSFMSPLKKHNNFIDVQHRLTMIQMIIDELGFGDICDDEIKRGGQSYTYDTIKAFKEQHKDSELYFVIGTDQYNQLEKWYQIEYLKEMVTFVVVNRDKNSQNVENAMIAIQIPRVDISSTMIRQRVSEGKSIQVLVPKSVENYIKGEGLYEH

In the case of `C[c-]1[c-](C)[c-](C)[c-](C)[c-]1C.[Fe].c1cc2nccc(N3CCCC3)[c-]2c1` (stereo unspecified), the IC50 was 35.9 µM.

(Values after PubChem BioAssay AID624317 (Sanford-Burnham Center for Chemical Genomics, 2012).)
